In US20120190666A1, “Heteroaryl Compounds as PIKK Inhibitors” (Amgen Inc., priority 2009, published 2012) one finds IC50 data, which are given here for 37 compounds.

In the test the target is T1, PI3Kα (Homo sapiens, UniProt P42336).
T1 construct: Full length p110 subunits of PI3K α, β and δ, N-terminally labeled with polyHis tag; polyHis (N); made in house; host or cells: Sf9 insect cells (baculovirus)
T1 sequence (P42336 whole entry): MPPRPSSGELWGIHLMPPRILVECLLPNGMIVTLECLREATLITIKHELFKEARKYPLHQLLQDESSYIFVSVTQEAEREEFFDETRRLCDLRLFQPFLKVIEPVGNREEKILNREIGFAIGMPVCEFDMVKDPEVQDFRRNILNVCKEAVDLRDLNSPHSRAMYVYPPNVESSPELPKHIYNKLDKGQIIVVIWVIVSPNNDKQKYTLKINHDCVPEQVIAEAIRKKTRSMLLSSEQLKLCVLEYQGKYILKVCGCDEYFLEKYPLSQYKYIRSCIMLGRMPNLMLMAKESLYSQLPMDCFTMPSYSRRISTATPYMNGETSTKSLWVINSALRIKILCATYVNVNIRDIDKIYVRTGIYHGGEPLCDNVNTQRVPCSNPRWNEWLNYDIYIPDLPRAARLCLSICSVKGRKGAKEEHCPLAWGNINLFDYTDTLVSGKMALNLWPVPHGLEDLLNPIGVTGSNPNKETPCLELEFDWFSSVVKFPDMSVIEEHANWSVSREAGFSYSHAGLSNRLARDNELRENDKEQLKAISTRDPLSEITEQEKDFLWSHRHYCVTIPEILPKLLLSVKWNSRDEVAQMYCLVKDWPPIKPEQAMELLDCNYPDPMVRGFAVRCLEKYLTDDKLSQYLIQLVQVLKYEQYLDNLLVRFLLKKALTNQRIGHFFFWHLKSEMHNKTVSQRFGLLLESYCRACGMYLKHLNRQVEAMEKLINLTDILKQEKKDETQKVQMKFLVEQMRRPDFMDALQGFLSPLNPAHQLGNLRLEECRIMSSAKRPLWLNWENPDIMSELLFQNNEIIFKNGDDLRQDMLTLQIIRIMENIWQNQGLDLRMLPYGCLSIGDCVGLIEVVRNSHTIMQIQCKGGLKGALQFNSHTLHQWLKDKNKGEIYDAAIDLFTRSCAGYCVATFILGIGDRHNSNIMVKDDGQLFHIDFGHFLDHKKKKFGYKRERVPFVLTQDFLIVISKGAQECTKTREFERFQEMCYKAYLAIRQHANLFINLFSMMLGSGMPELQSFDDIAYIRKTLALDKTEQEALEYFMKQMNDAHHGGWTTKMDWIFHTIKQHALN
T1 sequence (P27986 whole entry partner): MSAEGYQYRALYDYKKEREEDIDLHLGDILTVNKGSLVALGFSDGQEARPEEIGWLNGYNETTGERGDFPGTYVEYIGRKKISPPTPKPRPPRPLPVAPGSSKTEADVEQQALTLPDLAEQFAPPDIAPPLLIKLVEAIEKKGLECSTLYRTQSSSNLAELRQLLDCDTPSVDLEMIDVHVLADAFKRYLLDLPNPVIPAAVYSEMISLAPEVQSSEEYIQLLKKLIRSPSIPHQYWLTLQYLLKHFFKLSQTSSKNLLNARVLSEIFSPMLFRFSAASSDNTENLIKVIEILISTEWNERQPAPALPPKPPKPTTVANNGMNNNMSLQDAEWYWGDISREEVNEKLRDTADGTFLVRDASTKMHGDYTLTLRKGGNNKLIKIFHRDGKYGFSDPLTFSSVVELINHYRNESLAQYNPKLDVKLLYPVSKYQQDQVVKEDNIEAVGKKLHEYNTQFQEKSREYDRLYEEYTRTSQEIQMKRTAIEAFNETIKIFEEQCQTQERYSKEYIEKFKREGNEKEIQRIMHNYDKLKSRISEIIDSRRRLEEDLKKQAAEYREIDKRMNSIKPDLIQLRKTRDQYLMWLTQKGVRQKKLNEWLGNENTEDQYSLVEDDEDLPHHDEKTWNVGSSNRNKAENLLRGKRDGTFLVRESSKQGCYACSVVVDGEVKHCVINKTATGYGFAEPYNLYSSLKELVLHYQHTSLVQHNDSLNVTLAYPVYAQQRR
Description: In vitro PI3K AlphaScreen assay, PI3Kα. The format is biochemical. The settings on record: PI(4,5)P2 substrate, 20 minutes at room temperature, read-out: P13Kalpha IC50 um. Put shortly:
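PI3Kα at 1.6 nM (2× stock) with PI(4,5)P2 10 μM and ATP 20 μM (2× stocks) in Tris pH 7, MgCl2, cholate, NaCl, DTT; 20 min at room temperature. Quenched with biotin-IP4/streptavidin-Donor beads, then GST-PIP3-binding protein/anti-GST Acceptor beads, 1.5 h dark; PIP3 formation read as loss of AlphaScreen signal.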
The IC50 is the concentration that gives 50% inhibition. As for `Cc1nc(N)cc(-c2c(Nc3ccnn3C(=O)N3CCC3)nc3cccnn23)n1` [Cpd 257, 3-(6-amino-2-methyl-4-pyrimidinyl)-N-(1-(1-azetidinylcarbonyl)-1H-pyrazol-5-yl)imidazo[1,2-b]pyridazin-2-amine], the IC50 turned out to be 46.5 µM.
Turning to `Cc1nc(N)nc(-c2c(Nc3cc[nH]n3)nc3ccc(C4=CCN(C(=O)OC(C)(C)C)CC4)cn23)n1` [Cpd 97, tert-butyl 4-(3-(4-amino-6-methyl-1,3,5-triazin-2-yl)-2-(1H-pyrazol-3-ylamino)imidazo[1,2-a]pyridin-6-yl)-3,6-dihydro-1(2H)-pyridinecarboxylate], the half-inhibitory concentration (IC50) worked out at 0.35 µM.
With `Cc1nc(N)nc(-c2c(Nc3ccn(C)n3)nc3ccc(-c4ccc(S(C)(=O)=O)cc4)cn23)n1` [Cpd 354] the figure was 0.77 µM; with `Cc1nc(N)nc(-c2c(Nc3cc[nH]n3)nc3ccc(-c4ccoc4)cn23)n1` [Cpd 105, 3-(4-amino-6-methyl-1,3,5-triazin-2-yl)-6-(3-furanyl)-N-1H-pyrazol-3-ylimidazo[1,2-a]pyridin-2-amine], 0.04 µM; with `Cc1nc(NC(=O)CC#N)cc(-c2c(Nc3ccn(C)n3)nc3ccccn23)n1` [Cpd 126, 2-cyano-N-(2-methyl-6-(2-((1-methyl-1H-pyrazol-3-yl)amino)imidazo[1,2-a]pyridin-3-yl)-4-pyrimidinyl)acetamide], 5.34 µM.
`COCCOc1ccc2nc(Nc3cc[nH]n3)c(-c3cc(N)nc(C)n3)n2n1` [Cpd 69, 3-(6-amino-2-methyl-4-pyrimidinyl)-6-(2-methoxyethoxy)-N-1H-pyrazol-3-ylimidazo[1,2-b]pyridazin-2-amine]: the IC50 was 0.09 µM.
Turning to `Cc1nc(N)nc(-c2c(Nc3cc[nH]n3)nc3ccc(-c4cccc(NC(=O)C5CC5)c4)cn23)n1` [Cpd 115, N-(3-(3-(4-amino-6-methyl-1,3,5-triazin-2-yl)-2-(1H-pyrazol-3-ylamino)imidazo[1,2-a]pyridin-6-yl)phenyl)cyclopropanecarboxamide], the IC50 is 0.04 µM.
As to `Cc1nc(-c2c(Nc3cccc(O)c3)nc3ccccn23)c2nc[nH]c2n1` [Cpd 2], the concentration for half-maximal inhibition (IC50) is 0.02 µM.
Turning to `COc1ccc(Nc2cc(C)nn2-c2cc(N)nc(C)n2)cn1` [Cpd 24, 6-(5-(6-methoxypyridin-3-ylamino)-3-methyl-1H-pyrazol-1-yl)-2-methylpyrimidin-4-amine], the IC50 was determined as 0.79 µM.
Take `Cc1nc(N)cc(-n2nc(C(=O)N3CCOCC3)cc2Nc2ccn[nH]2)n1` [Cpd 13, (5-(1H-pyrazol-5-ylamino)-1-(6-amino-2-methylpyrimidin-4-yl)-1H-pyrazol-3-yl)(morpholino)methanone]: the IC50 was 1.12 µM.
Under `Cc1nc(N)nc(-c2c(Nc3cc[nH]n3)nc3ccc(Nc4ccncc4)cn23)n1` [Cpd 166] stands 5.65 µM.
Take `Cc1nc(N)cc(-c2c(Nc3ccn(C(=O)Nc4cc(F)cc(F)c4)n3)nc3cccnn23)n1` [Cpd 242, 3-((3-(6-amino-2-methyl-4-pyrimidinyl)imidazo[1,2-b]pyridazin-2-yl)amino)-N-(3,5-difluorophenyl)-1H-pyrazole-1-carboxamide]: the concentration for half-maximal inhibition (IC50) was found to be 2.32 µM.
As for `CC(=O)NCc1ccc(-c2ccc3nc(Nc4cc[nH]n4)c(-c4nc(C)nc(N)n4)n3c2)cc1` [Cpd 100, N-(4-(3-(4-amino-6-methyl-1,3,5-triazin-2-yl)-2-(1H-pyrazol-3-ylamino)imidazo[1,2-a]pyridin-6-yl)benzyl)acetamide], the 50% inhibitory concentration (IC50) came to 0.42 µM.
Turning to `Cc1nc(NC(=O)C2CC2)cc(-c2c(Nc3cc[nH]n3)nc3cccnn23)n1` [Cpd 120], the concentration for half-maximal inhibition (IC50) was 1 µM.
Take `Cc1nc(N)cc(-n2nc(C(=O)NC3CC3)cc2Nc2cc[nH]n2)n1` [Cpd 16, 5-(1H-pyrazol-5-ylamino)-1-(6-amino-2-methylpyrimidin-4-yl)-N-cyclopropyl-1H-pyrazole-3-carboxamide]: the 50% inhibitory concentration (IC50) was 2.38 µM.
`Cc1nc(NC(=O)CN(C)C)cc(-c2c(Nc3ccn(C)n3)nc3cccnn23)n1` [Cpd 92]: the IC50 is 20.1 µM.
Under `Cc1nc(N)nc(-c2c(Nc3cc[nH]n3)nc3ccc(-c4ccc(F)cc4C)cn23)n1` [Cpd 107, 3-(4-amino-6-methyl-1,3,5-triazin-2-yl)-6-(4-fluoro-2-methylphenyl)-N-1H-pyrazol-3-ylimidazo[1,2-a]pyridin-2-amine] stands 0.25 µM; under `CNc1cc(-c2c(Nc3cc[nH]n3)nc3ccc(N4CCOCC4)nn23)nc(C)n1` [Cpd 72, 3-(2-methyl-6-(methylamino)-4-pyrimidinyl)-6-(4-morpholinyl)-N-1H-pyrazol-3-ylimidazo[1,2-b]pyridazin-2-amine], 0.11 µM.
As to `Cc1nc(Nc2ccc(N3CCOCC3)nn2)cc(-c2c(Nc3cc[nH]n3)nc3ccccn23)n1` [Cpd 49, 3-(2-methyl-6-((6-(4-morpholinyl)-3-pyridazinyl)amino)-4-pyrimidinyl)-N-1H-pyrazol-3-ylimidazo[1,2-a]pyridin-2-amine], the IC50 was determined as 0.13 µM.
For the compound `Cc1nc(N)cc(-n2nc(C(=O)Nc3cccnc3)cc2Nc2ccn[nH]2)n1` [Cpd 11, 5-(1H-pyrazol-5-ylamino)-1-(6-amino-2-methylpyrimidin-4-yl)-N-(pyridin-3-yl)-1H-pyrazole-3-carboxamide], the IC50 amounted to 0.66 µM.
As for `Cc1nc(Nc2ccc(N3CCN(C)CC3)nn2)cc(-c2c(Nc3cc[nH]n3)nc3cccnn23)n1` [Cpd 35, 3-(2-methyl-6-((6-(4-methyl-1-piperazinyl)-3-pyridazinyl)amino)-4-pyrimidinyl)-N-1H-pyrazol-3-ylimidazo[1,2-b]pyridazin-2-amine], the IC50 came to 0.11 µM.
For `COCC(=O)Nc1cc(-c2c(Nc3ccn(C)n3)nc3cccnn23)nc(C)n1` [Cpd 123, 2-methoxy-N-(2-methyl-6-(2-((1-methyl-1H-pyrazol-3-yl)amino)imidazo[1,2-b]pyridazin-3-yl)-4-pyrimidinyl)acetamide], the half-inhibitory concentration (IC50) came to 6.93 µM.
In the case of `CC(=O)n1ccc(Nc2nc3cccnn3c2-c2cc(N)nc(C)n2)n1` [Cpd 67, N-(1-acetyl-1H-pyrazol-3-yl)-3-(6-amino-2-methyl-4-pyrimidinyl)imidazo[1,2-b]pyridazin-2-amine], the IC50 is 0.75 µM.
Regarding `CCOC(=O)c1cc(Nc2cc[nH]n2)n(-c2cc(N)nc(C)n2)n1` [Cpd 15, ethyl 5-(1H-pyrazol-3-ylamino)-1-(6-amino-2-methylpyrimidin-4-yl)-1H-pyrazole-3-carboxylate], the half-inhibitory concentration (IC50) stood at 0.34 µM.
With `Cc1cc(Nc2cc[nH]n2)n(-c2cc(N)nc(C)n2)n1` [Cpd 18, 6-(5-(1H-pyrazol-3-ylamino)-3-methyl-1H-pyrazol-1-yl)-2-methylpyrimidin-4-amine], the IC50 turned out to be 3.23 µM.
On to `CNc1nc(C)nc(-c2c(Nc3cc[nH]n3)nc3ccccn23)n1` [Cpd 3, 3-(4-methyl-6-(methylamino)-1,3,5-triazin-2-yl)-N-(1H-pyrazol-3-yl)imidazo[1,2-a]pyridin-2-amine], for which the IC50 was 0.82 µM.
For the compound `Cc1nc(N)nc(-c2c(Nc3cc[nH]n3)nc3ccccn23)n1` [Cpd 1, 3-(4-amino-6-methyl-1,3,5-triazin-2-yl)-N-(1H-pyrazol-3-yl)imidazo[1,2-a]pyridin-2-amine], the IC50 was found to be 0.82 µM.
For the compound `Cc1nc(N)nc(-c2c(Nc3cc[nH]n3)nc3ccc(-c4ccc(C(=O)O)cc4C)cn23)n1` [Cpd 177, 4-(3-(4-amino-6-methyl-1,3,5-triazin-2-yl)-2-(1H-pyrazol-3-ylamino)imidazo[1,2-a]pyridin-6-yl)-3-methylbenzoic acid], the IC50 stood at 0.08 µM.
As for `Cc1nc(Nc2ccccc2F)cc(-c2c(Nc3cc[nH]n3)nc3cccnn23)n1` [Cpd 31, 3-(6-((2-fluorophenyl)amino)-2-methyl-4-pyrimidinyl)-N-1H-pyrazol-3-ylimidazo[1,2-b]pyridazin-2-amine], the half-maximal inhibitory concentration (IC50) amounted to 2.76 µM.
On to `Cc1nc(N)nc(-c2c(Nc3cc[nH]n3)nc3ccc(-c4ccc(S(C)(=O)=O)cc4)cn23)n1` [Cpd 344, 3-(4-amino-6-methyl-1,3,5-triazin-2-yl)-6-(4-(methylsulfonyl)phenyl)-N-1H-pyrazol-3-ylimidazo[1,2-a]pyridin-2-amine], for which the IC50 was found to be 0.07 µM.
For `Cc1nc(N)cc(-c2c(Nc3ccn(C(=O)NCc4ccccc4)n3)nc3ccccn23)n1` [Cpd 222, 3-((3-(6-amino-2-methyl-4-pyrimidinyl)imidazo[1,2-a]pyridin-2-yl)amino)-N-benzyl-1H-pyrazole-1-carboxamide], the 50% inhibitory concentration (IC50) amounted to 1.2 µM.
Turning to `CC(=O)Nc1cccc(-c2ccc3nc(Nc4cc[nH]n4)c(-c4nc(C)nc(N)n4)n3c2)c1` [Cpd 114, N-(3-(3-(4-amino-6-methyl-1,3,5-triazin-2-yl)-2-(1H-pyrazol-3-ylamino)imidazo[1,2-a]pyridin-6-yl)phenyl)acetamide], the 50% inhibitory concentration (IC50) was 0.1 µM.
With `CC(=O)Nc1cc(-c2c(Nc3ccn(C)n3)nc3c(F)cccn23)nc(C)n1` [Cpd 63, N-(6-(8-fluoro-2-((1-methyl-1H-pyrazol-3-yl)amino)imidazo[1,2-a]pyridin-3-yl)-2-methyl-4-pyrimidinyl)acetamide] the figure was 2.04 µM; with `Cc1nc(N)cc(-c2c(Nc3ccc4cc[nH]c4n3)nc3ccccn23)n1` [Cpd 41, 3-(6-amino-2-methyl-4-pyrimidinyl)-N-1H-pyrrolo[2,3-b]pyridin-6-ylimidazo[1,2-a]pyridin-2-amine], 43.2 µM; with `CCNC(=O)Nc1ccc(Nc2nc3ccccn3c2-c2cc(N)nc(C)n2)cc1` [Cpd 40, 1-(4-((3-(6-amino-2-methyl-4-pyrimidinyl)imidazo[1,2-a]pyridin-2-yl)amino)phenyl)-3-ethylurea], 0.45 µM.
As for `Cc1nc(N)nc(-c2c(Nc3cc[nH]n3)nc3cc(OCCN4CCCC4)ccn23)n1` [Cpd 188], the concentration for half-maximal inhibition (IC50) came to 7.01 µM.
For `CNC(=O)c1cc(Nc2ccn[nH]2)n(-c2cc(N)nc(C)n2)n1` [Cpd 14, 5-(1H-pyrazol-5-ylamino)-1-(6-amino-2-methylpyrimidin-4-yl)-N-methyl-1H-pyrazole-3-carboxamide], the IC50 amounted to 2.35 µM.
